Test results published in patent US20100255580A1, “Differentiation of Human Embryonic Stem Cells” (LIFESCCAN, INC., priority 2007, published 2010).

Test system: H9 embryonic stem cells
Assay type: cell-based, human
Details: low serum, on MATRIGEL
Protocol: Controls for each group included cells plated on […]-coated dishes and cultured in MEF-conditioned medium or cells plated on MEFs and cultured in ES medium. All groups contained three biological replicates and each biological replicate was repeated on two separate gene chips.
Sample preparation, hybridization, and image analysis were performed according to the Affymetrix Human Genome U133 Plus 2.0 Array. Following normalization and a log transformation, data analysis was performed using OmniViz® software (MA) and […] (VizXLabs, WA). Significant differences in gene expression between the samples were evaluated using analysis of variance and an F-test with adjusted P-value (Benjamini and
Hochberg correction) of ≦b 0.05. Only genes with a present call in at least one group were included in the analysis.

Activin A: a member of the TGFβ superfamily; R&D Systems; Group 2 = Activin A (100 ng/ml)
log intensity, H2A histone family, member X: 1.371
log intensity, H. sapiens skeletal embryonic myosin light chain 1 (MLC1): 0.6901
log intensity, HT016 mRNA: 0.2188
log intensity, Homo sapiens nudix (nucleoside diphosphate linked moiety X)-type motif (r1198): 3.915
log intensity, Human DNA sequence from clone RP4-781L3 on chromosome 1p34.3-36.11: 2.828
log intensity, Human DNA sequence from clone RP11-446H13 on chromosome 10: −0.8894
log intensity, Human MLC1emb gene for embryonic myosin alkaline light chain, promoter and exon 1: 1.3489
log intensity, Human clone 23826 mRNA sequence: 1.808
log intensity, Human embryonic myosin alkali light chain (MLC1): 1.942
log intensity, Human extracellular matrix protein 1 (ECM1): 0.6348
log intensity, Human mRNA for pro-alpha 1 (II) collagen 3end C-term.: 0.8598
log intensity, Human rho GDI mRNA: 0.01936
log intensity, KIAA0127 gene product (KIAA0127): 2.052
log intensity, KIAA0346 protein: −1.347
log intensity, KIAA0418 gene product: −0.6776
log intensity, KIAA0761 protein: −2.096
log intensity, KIAA0882 protein: 2.056
log intensity, KIAA0918 protein: −1.397
log intensity, KIAA1415 protein: 0.1859
log intensity, KIAA1511 protein: 0.6203
log intensity, Kruppel-like factor 8 (KLF8): 0.3261
log intensity, LIM homeobox protein 1 (LHX1): −0.7717
log intensity, LYST-interacting protein LIP3: −0.6821
log intensity, MAD (mothers against decapentaplegic, Drosophila) homolog 6 (MADH6): 0.9175
log intensity, MYC-associated zinc finger protein (purine-binding transcription factor) (MAZ): −0.05557
log intensity, Novel human mRNA from chromosome 22: −0.5337
log intensity, PNAS-145 mRNA: 2.85
log intensity, PRO1957 mRNA: 1.689
log intensity, PTPRF interacting protein, binding protein 2 (liprin beta 2): −1.92
log intensity, Pig10 (PIG10): 0.1295
log intensity, SG2NA beta isoform: −1.156
log intensity, Similar to B9 protein, clone MGC: 11339: 1.439
log intensity, Similar to RIKEN cDNA C330013D18 gene, clone MGC: 11226: 0.08747
log intensity, Similar to lipase protein, clone MGC: 2843: −1.161
log intensity, X75208 H. sapiens HEK2 mRNA for protein tyrosine kinase receptor: −1.367
log intensity, adaptor-related protein complex 3, beta 2 subunit (AP3B2): −0.2083
log intensity, adenylate cyclase 8 (brain) (ADCY8): −1.3408
log intensity, alpha 2,8-sialyltransferase: −1.105
log intensity, aminolevulinate, delta-, dehydratase, clone MGC: 5057: 1.3099
log intensity, annexin A6 (ANXA6), transcript variant 1: 3.89
log intensity, apolipoprotein A-II (APOA2): −1.102
log intensity, apolipoprotein C-I (APOC1): 3.25
log intensity, arrestin, beta 1 (ARRB1), transcript variant 1: −0.1588
log intensity, bHLH factor Hes4 (LOC57801): 0.4782
log intensity, beta3GalNAcT-1 mRNA for globoside synthase, clone: type 2: −2.733
log intensity, bone morphogenetic protein 2 (BMP2): 2.045
log intensity, bone morphogenetic protein 5 (BMP5): −0.6099
log intensity, bromodomain and PHD finger containing, 3: −2.8472
log intensity, c-mer proto-oncogene tyrosine kinase (MERTK): 1.79
log intensity, cDNA FLJ11390 fis, clone HEMBA1000561: −1.129
log intensity, cDNA FLJ13221 fis, clone NT2RP4002075: 0.2828
log intensity, cDNA FLJ13392 fis, clone PLACE1001280: −1.902
log intensity, cDNA FLJ13810 fis, clone THYRO1000279: −2.924
log intensity, cDNA FLJ30081 fis, clone BGGI12000693: 0.6779
log intensity, cDNA FLJ34035 fis, clone FCBBF2004788: −3.58
log intensity, cDNA FLJ36116 fis, clone TESTI2022338: 3.026
log intensity, cDNA: FLJ22731 fis, clone HSI15841: −2.309
log intensity, cDNA: FLJ22808 fis, clone KAIA2925: −0.3674
log intensity, cDNA: FLJ23067 fis, clone LNG04993: −2.256
log intensity, calmegin (CLGN): −0.1043
log intensity, cardiac ankyrin repeat protein (CARP): −0.002291
log intensity, cartilage linking protein 1: 0.8794
log intensity, caspase-like apoptosis regulatory protein 2 (clarp): 0.4342
log intensity, chemokine receptor CXCR4 mRNA: 2.306
log intensity, cleft lip and palate associated transmembrane protein 1, clone MGC: 10593: 1.316
log intensity, clone FLC1492 PRO3121 mRNA: −0.3
log intensity, clone HB-2 mRNA sequence: −0.5039
log intensity, clone IMAGE: 3509274, mRNA, partial cds: 0.4937
log intensity, clone IMAGE: 4047715, mRNA: −2.508
log intensity, clone MGC: 14801: 2.039
log intensity, clone MGC: 24252 IMAGE: 3932604: −1.533
log intensity, clone TUA8 Cri-du-chat region mRNA: 0.09218
log intensity, collagen, type V, alpha 1: 1.5875
log intensity, complement component 5 (C5): −1.896
log intensity, core histone macroH2A2.2 (MACROH2A2): 1.673
log intensity, cystatin C (amyloid angiopathy and cerebral hemorrhage) (CST3): 2.086
log intensity, deiodinase, iodothyronine, type III (DIO3): −0.1369
log intensity, dickkopf (Xenopus laevis) homolog 1 (DKK1): 0.9815
log intensity, dual specificity phosphatase 4, clone MGC: 3713: 2.115
log intensity, dynein, axonemal, light polypeptide 4 (DNAL4): 0.4583
log intensity, dystrophin (muscular dystrophy, Duchenne and Becker types) (DMD), transcript variant Dp427p2: 1.404
log intensity, ectodermal dysplasia 1, anhidrotic (ED1): 0.7966
log intensity, elongation of very long chain fatty acids (FEN1Elo2, SUR4Elo3, yeast)-like 2 (ELOVL2): 0.09998
log intensity, endothelin receptor type A (EDNRA), mRNA: 0.763
log intensity, endothelin receptor type A (r1027): −1.834
log intensity, enolase 2, (gamma, neuronal) (ENO2): 2.606
log intensity, eomesodermin (Xenopus laevis) homolog (EOMES): 2.659
log intensity, erythrocyte membrane protein band 4.9 (dematin) (EPB49): −0.3066
log intensity, fasciculation and elongation protein zeta 1 (zygin I) (FEZ1), transcript variant 1: 1.864
log intensity, forkhead box F2 (FOXF2): −1.545
log intensity, gelsolin (amyloidosis, Finnish type) (GSN): 1.6198
log intensity, glucose-6-phosphate transporter (G6PT) gene, G6PT-Dt allele: −0.1935
log intensity, glutathione S-transferase A2 (GSTA2): −3.106
log intensity, glycoprotein M6A: 0.2744
log intensity, guanylate cyclase activator 1B (retina) (GUCA1B): −0.7142
log intensity, heparan sulfate proteoglycan 2 (perlecan): −2.533
log intensity, hexabrachion (tenascin C, cytotactin) (HXB): 3.969
log intensity, high mobility group protein-R: 1.047
log intensity, hypothetical protein BC017868 (LOC159091): −0.2902
log intensity, hypothetical protein DKFZp434F0318: −1.115
log intensity, hypothetical protein DKFZp434F2322: 0.07058
log intensity, hypothetical protein DKFZp564B052: 1.478
log intensity, hypothetical protein FLJ10312: 1.595
log intensity, hypothetical protein FLJ11155: −3.346
log intensity, hypothetical protein FLJ11560: −0.04411
log intensity, hypothetical protein FLJ12538 similar to ras-related protein RAB17: 1.706
log intensity, hypothetical protein FLJ12666 (r758): 0.2158
log intensity, hypothetical protein FLJ12666 (r998): 2.341
log intensity, hypothetical protein FLJ12838: 1.491
log intensity, hypothetical protein FLJ21195 similar to protein related to DAC and cerberus: −1.385
log intensity, hypothetical protein FLJ22471: 0.9038
log intensity, hypothetical protein FLJ23091: −0.7609
log intensity, hypothetical protein FLJ23514: 0.5646
log intensity, hypothetical protein FLJ32835: −0.5956
log intensity, hypothetical protein MGC2865, clone MGC: 20246: −2.431
log intensity, insulin-like growth factor binding protein 6 (IGFBP6): 2.6126
log intensity, keratin 19 (KRT19): 3.806
log intensity, kidney-specific membrane protein NX-17: 1.919
log intensity, lipase mRNA: −2.2131
log intensity, lymphocyte antigen 6 complex, locus E (LY6E): 0.8664
log intensity, mRNA for KIAA0876 protein: −0.432
log intensity, mRNA for KIAA1161 protein: 0.7818
log intensity, mRNA for MSX-2: 0.4072
log intensity, mRNA for protein-tyrosine kinase: 0.161
log intensity, mRNA; cDNA DKFZp434E082: 1.364
log intensity, mRNA; cDNA DKFZp434K0621: 0.5814
log intensity, mRNA; cDNA DKFZp434P228: 1.768
log intensity, mRNA; cDNA DKFZp547H236: 1.372
log intensity, mRNA; cDNA DKFZp564K1672: 4.494
log intensity, mRNA; cDNA DKFZp586G2120: −1.809
log intensity, mRNA; cDNA DKFZp586L0120: −2.726
log intensity, mRNA; cDNA DKFZp762H185: 2.837
log intensity, mandaselin long form: −0.1481
log intensity, matrix metalloproteinase 15 (membrane-inserted) (MMP15): −0.2985
log intensity, microseminoprotein, beta-(MSMB): −2.379
log intensity, mitogen-activated protein kinase 10 (MAPK10): 0.648
log intensity, nuclear factor of kappa light polypeptide gene enhancer in B-cells inhibitor, alpha: 2.915
log intensity, nuclear receptor subfamily 0, group B, member 1 (NR0B1) (r534): −1.928
log intensity, nuclear receptor subfamily 0, group B, member 1 (NR0B1) (r1079): −0.2138
